Assay results as given in PMC7782499, “Progerinin, an optimized progerin-lamin A binding inhibitor, ameliorates premature senescence phenotypes of Hutchinson-Gilford progeria syndrome” (Communications Biology, 2021).
Several values for one entry are separate records, joined by “and”; a condition that tells them apart may be missing. Equal entries are not always repeated.

What was measured:
[1] = Solubility and stability of SLC-D011 in water and monoolein-based solution; assay type: physicochemical
Experimental: Fig. S9. In vitro ADME results of SLC-D011 via oral administration. A. Formulation for complete dissolution. Due to its extremely hydrophobic property, SLC-D011 was not dissolved in water solution (left). To overcome this problem, several edible solutions were tested and monoolein- based solution was selected as a dissolving solution (right). B. SLC-D011 was very stable in solution. For complete dissolution, heating at 80℃ and sonication step were required. However, SLC -D011 was not broken despite of heating […]
and sonication. […] C and D.
Pharmacokinetic analysis of SLC -D011dissolved in monoolein- based solution.

[2] = molecular target: hERG (human Ether-à-go-go-Related Gene) (Homo sapiens, UniProt Q12809); assay: hERG inhibition; assay type: in vitro ADME
hERG (human Ether-à-go-go-Related Gene), sequence (Q12809 whole entry): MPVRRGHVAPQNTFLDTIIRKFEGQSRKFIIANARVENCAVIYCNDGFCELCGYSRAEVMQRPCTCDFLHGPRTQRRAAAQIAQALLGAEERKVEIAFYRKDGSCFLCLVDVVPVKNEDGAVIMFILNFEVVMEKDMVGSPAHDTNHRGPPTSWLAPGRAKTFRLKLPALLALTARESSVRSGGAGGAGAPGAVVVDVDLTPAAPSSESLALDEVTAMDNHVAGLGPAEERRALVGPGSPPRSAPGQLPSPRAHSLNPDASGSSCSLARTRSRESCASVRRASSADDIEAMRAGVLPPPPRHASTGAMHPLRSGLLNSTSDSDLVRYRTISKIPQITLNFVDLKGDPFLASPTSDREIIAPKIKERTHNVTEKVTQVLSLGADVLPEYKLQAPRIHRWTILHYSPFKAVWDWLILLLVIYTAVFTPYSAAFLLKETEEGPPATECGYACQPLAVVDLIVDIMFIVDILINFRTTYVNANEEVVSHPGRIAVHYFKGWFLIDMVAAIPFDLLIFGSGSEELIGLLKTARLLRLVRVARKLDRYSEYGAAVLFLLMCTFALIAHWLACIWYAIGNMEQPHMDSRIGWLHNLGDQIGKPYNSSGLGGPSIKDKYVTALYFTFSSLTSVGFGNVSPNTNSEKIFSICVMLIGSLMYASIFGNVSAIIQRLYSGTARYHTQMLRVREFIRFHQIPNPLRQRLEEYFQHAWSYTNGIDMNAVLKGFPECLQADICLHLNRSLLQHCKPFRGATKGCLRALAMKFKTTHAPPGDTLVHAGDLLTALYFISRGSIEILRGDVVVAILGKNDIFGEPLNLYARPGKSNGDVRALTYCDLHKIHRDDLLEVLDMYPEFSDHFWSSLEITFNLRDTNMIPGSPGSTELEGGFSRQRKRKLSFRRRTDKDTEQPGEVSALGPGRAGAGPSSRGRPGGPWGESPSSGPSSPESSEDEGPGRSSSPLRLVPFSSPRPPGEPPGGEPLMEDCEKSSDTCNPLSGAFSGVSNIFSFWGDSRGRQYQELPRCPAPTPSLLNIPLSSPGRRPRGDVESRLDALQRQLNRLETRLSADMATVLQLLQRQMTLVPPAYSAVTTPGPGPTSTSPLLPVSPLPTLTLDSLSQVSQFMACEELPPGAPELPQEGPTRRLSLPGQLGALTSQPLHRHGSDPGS
Experimental: At pre-set time-points, blood concentration of JH4 was determined by LC-MS/MS analysis[22],[23]. Other chemicals were also tested using similar protocol. In vitro ADME studies (plasma protein binding, CYP inhibition, microsomal stability, plasma stability, and hERG inhibition) were performed by New Drug Development Center (Daegu, Korea) using standard protocols[24],[25].

[3] = molecular target: T1, progerin (Homo sapiens, UniProt P02545); assay: Exogenous GFP-progerin expression in transfected HEK293 cells; assay type: cell-based; set-up: expressed in transfected cells; host or cells: HEK293 (ATCC); vector from T. Misteli (NCI); conditions: for GFP intensity after treatment with SLC-D011, Ave: average; for GFP intensity after treatment with SLC-D011: single replicates
T1 sequence (P02545 1-614 isoform P02545-6): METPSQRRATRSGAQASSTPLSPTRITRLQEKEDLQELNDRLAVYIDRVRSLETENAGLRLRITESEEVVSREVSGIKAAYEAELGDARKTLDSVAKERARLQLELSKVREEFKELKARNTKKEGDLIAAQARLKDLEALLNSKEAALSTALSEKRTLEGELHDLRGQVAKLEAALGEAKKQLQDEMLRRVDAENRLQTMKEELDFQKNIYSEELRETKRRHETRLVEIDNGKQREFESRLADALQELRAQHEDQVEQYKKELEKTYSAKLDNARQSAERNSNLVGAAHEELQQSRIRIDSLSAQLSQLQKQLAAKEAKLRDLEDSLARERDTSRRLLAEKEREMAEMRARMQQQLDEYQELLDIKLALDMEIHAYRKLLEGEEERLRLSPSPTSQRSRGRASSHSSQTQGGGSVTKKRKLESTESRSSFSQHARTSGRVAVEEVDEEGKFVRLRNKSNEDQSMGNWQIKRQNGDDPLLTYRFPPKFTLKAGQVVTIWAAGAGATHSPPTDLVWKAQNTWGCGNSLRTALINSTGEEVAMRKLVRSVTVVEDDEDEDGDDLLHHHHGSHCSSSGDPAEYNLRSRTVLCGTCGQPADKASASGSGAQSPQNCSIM
Experimental: A. In vivo pharmacokinetic (PK) analysis of JH010 (performed in rats). […] B Effect of SLC-D011 on human ERG (hERG). […] C In vivo pharmacokinetic analysis of SLD-D011. […] HEK293 cells transiently transfected with GFP-PG vectors were treated with SLC-D011 for 24 hr (n = 3 independent experiment; two-tailed Student’s t test). […] “Con” means dimethyl sulfoxide (DMSO)-treated control.
GFP tag conjugated EV (GFP-EV), lamin A (GFP-LA), lamin A-C661A (GFP-LA-C661A), progerin (GFP-PG), and progerin-C611A (GFP-PG-C611A) vectors were used. GFP-PG and GFP-LA expression vectors were kindly provided by Misteli T. (National Cancer Institute [NCI], Frederick, MD, USA). GFP-LA-C661A and GFP-PG-C611A expression vectors were created by a single point mutation in CaaX motif. The CSIM sequence of lamin A, or progerin was mutated to ASIM. jetPEI (Polyplus Transfection, NY, USA) was used for transfection of expression vectors. Vectors were mixed with 1.5 μl of jetPEI in 150 mM NaCl solution. The mixture was added to HEK293 cells. After 4 h of incubation, medium was replaced with a new medium supplemented with 10% FBS.
Protein was extracted from cells using a radioimmunoprecipitation assay (RIPA) buffer (50 mM Tris-Cl, pH 7.5, 150 mM NaCl, 1% NP-40, 0.1% SDS, and 10% sodium deoxycholate). Samples were separated by sodium dodecyl sulfate-polyacrylamide gel electrophoresis (SDS-PAGE) and transferred to polyvinylidene difluoride (PVDF) membranes. Blotted membranes were blocked with 3% skimmed milk in TBS-T buffer (20 mM Tris pH 7.6, 150 mM NaCl, and 0.05% Tween 20) for 1 h followed by incubation with specific primary antibodies. Horseradish peroxidase (HRP)-conjugated goat anti-mouse, goat anti-rabbit, and mouse anti-goat IgG antibodies (Pierce, Thermo Fisher Scientific, Inc., Rockford, IL, USA) were used as secondary antibodies. Peroxidase activity was detected by chemiluminescence using an ECL kit (Intron, Seoul, Korea) following the manufacturer’s instructions. Bands were quantified using Image J software (National Institute of Health, NIH).

SMILES: CC1(C)Oc2cc3oc(=O)ccc3cc2C[C@@H]1OC/C=C/c1ccccc1 [SLC-D011]
- Solubility in water [1]: very low solubility in water
- Stability in monoolein-based solution ([1]; after heating and sonicating): very stable in the solution
- hERG inhibition (in words) [2]: without severe hERG inhibition
- hERG inhibition: % Inhibition ([2]; Conc: 1uM): 14.673±4.74%
- hERG inhibition: % Inhibition ([2]; Conc: 10uM): 66.31±16.77%
- GFP intensity after treatment with SLC-D011, Ave ([3]; 10nM): 23.7595 AU
- GFP intensity after treatment with SLC-D011 ([3]; 10nM): 22.794 AU and 22.0662 AU and 26.4183 AU
- GFP intensity after treatment with SLC-D011, Ave ([3]; 50nM): 15.0559 AU
- GFP intensity after treatment with SLC-D011 ([3]; 50nM): 15.1696 AU and 15.171 AU and 14.827 AU
- GFP intensity after treatment with SLC-D011, Ave ([3]; 100nM): 3.935 AU
- GFP intensity after treatment with SLC-D011 ([3]; 100nM): 3.384 AU and 4.172 AU and 4.251 AU
- GFP intensity after treatment with SLC-D011, Ave ([3]; 500nM): 1.357 AU
- GFP intensity after treatment with SLC-D011 ([3]; 500nM): 1.4575 AU and 1.25 AU and 1.363 AU
- GFP intensity after treatment with SLC-D011, Ave ([3]; 1μM): 1.02 AU
- GFP intensity after treatment with SLC-D011 ([3]; 1μM): 0.898 AU and 1.076 AU and 1.085 AU
- GFP intensity after treatment with SLC-D011, Ave ([3]; 2μM): 0.8179 AU
- GFP intensity after treatment with SLC-D011 ([3]; 2μM): 0.8856 AU and 0.7639 AU and 0.8042 AU
- GFP intensity after treatment with SLC-D011, Ave ([3]; 5μM): 0.08935 AU
- GFP intensity after treatment with SLC-D011 ([3]; 5μM): 0.1141 AU and 0.03666 AU and 0.1173 AU
- Concentration from which exogenous progerin expression is reduced ([3]; HEK293, GFP-PG, 24 hr): 100 nM
